IC50 data for 22 compounds are collected here from patent publication US10626112B2, “Heterocyclic sulfonamide derivative and medicine comprising same” (EA PHARMA CO., LTD., priority 2014, dated 2020).

human TRPA1, sequence (O75762 whole entry): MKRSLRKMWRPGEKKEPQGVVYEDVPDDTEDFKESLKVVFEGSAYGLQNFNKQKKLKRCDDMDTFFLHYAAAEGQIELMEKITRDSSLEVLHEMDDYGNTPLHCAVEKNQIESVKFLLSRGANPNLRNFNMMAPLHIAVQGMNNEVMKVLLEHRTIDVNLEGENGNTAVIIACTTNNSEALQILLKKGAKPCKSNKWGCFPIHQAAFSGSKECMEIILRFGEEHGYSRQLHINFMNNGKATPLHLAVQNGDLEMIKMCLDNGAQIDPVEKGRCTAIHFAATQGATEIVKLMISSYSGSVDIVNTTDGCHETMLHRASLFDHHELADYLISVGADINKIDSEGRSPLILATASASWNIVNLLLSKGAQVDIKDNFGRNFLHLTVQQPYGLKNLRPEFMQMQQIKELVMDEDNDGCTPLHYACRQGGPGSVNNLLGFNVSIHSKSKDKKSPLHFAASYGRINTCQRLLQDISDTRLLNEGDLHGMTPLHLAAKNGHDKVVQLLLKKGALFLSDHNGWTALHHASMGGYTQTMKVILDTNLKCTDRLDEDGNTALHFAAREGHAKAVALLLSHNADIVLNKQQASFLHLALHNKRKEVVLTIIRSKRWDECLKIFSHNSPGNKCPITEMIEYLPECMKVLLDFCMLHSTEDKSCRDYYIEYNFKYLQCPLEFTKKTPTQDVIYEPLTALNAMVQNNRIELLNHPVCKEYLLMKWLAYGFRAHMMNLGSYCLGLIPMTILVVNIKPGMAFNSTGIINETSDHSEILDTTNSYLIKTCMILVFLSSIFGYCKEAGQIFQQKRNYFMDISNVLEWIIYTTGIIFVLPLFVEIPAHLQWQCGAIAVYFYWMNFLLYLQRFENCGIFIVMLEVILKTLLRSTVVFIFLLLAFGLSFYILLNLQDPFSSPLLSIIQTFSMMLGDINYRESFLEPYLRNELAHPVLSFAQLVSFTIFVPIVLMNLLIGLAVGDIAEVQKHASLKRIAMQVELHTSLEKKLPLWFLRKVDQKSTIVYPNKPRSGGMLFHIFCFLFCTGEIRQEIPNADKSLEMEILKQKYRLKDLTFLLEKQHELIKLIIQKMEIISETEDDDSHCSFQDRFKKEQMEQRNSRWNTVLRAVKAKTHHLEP

The target of this test is human TRPA1 (Homo sapiens (Human), UniProt O75762). The test is described as follows: Measurement of TRPA1 antagonist activity (1): intracellular calcium increase. The test is classed as cell-based. The conditions noted are these: 293T cells transfected with human TRPA1 expression plasmid; allylisothiocyanate 20 μM stimulation; intracellular calcium fluorescence; read-out: hTRPA1 IC50. From the text:
Measurement of TRPA1 Antagonist Activity (1)
Human TRPA1 Expression Plasmid
As cDNA encoding human TRPA1 (GenBank accession No. […]), a commercially available product was purchased (manufactured by Kazusa DNA Research Institute, clone No.: pFN21AB7348, item No.: FHC07217). Using this as a template, full-length human TRPA1 gene was amplified using the primer sequences shown below, by reaction using DNA polymerase (manufactured by Stratagene, trade name: PfuUltra High-Fidelity DNA Polymerase).
A recognition site (underlined) of restriction enzyme HindIII was added to the 5′ side, and XbaI site (underlined) was added to the 3′ side, and GTT of the template sequence was changed to termination codon TAG (bold). The obtained double stranded DNA was enzyme-digested with HindIII and XbaI, and introduced into the multicloning site of expression plasmid pcDNA3.1/zeo(+) (manufactured by Invitrogen) to construct a human TRPA1 expression plasmid.
Human embryonic kidney-derived 293T cells were cultured in Dulbecco's Modified Eagle Medium containing 10% fetal bovine serum, 10 unit penicillin, and 10 μg streptomycin, plated on a petri dish having a diameter of 10 cm at 3×10^6 cells, and cultured for 24 hr in a CO2 incubator. A reduced serum medium (manufactured by Invitrogen, trade name: OPTI-MEM, 600 μL), a gene transfer reagent (manufactured by Mirus Bio, trade name: Mirus TransIT-293, 18 μL), and human TRPA1 expression plasmid (6 μg) were mixed, the total amount of the mixture was added to the cells on the petri dish to allow for gene transfer. The cells were recovered about for 8 hr later, plated on a poly-D-lysine coated 384 well black/clear bottom plate at 12,000 cells/well, and cultured overnight.
Measurement of Intracellular Calcium Increase
The 384 well plate was recovered, and the medium was removed. A calcium-bonded fluorescent indicator (manufactured by Molecular Device, trade name: Calcium4 Assay Kit, 38 μL) dissolved in assay buffer (1×HBSS, 20 mM HEPES, pH 7.2) was added, and the cells were stained in a CO2 incubator for 1 hr. The cells were taken out at room temperature, stood for not less than 15 min, a test substance (10 μL) was added by a platereader FDSS7000 (Hamamatsu Photonics K.K.) equipped with a 384ch dispenser. After 10 min, allylisothiocyanate (12 μL) was further added at a final concentration of 20 μM, and changes in the relative fluorescence intensity after addition of allylisothiocyanate were measured for 5 min.
Test Substance Preparation
The test substance was dissolved in dimethyl sulfoxide and serially diluted with an assay buffer containing 0.1% bovine serum albumin (1×HBSS, 20 mM HEPES, pH 7.2) to a 4.8-fold concentration of the evaluation concentration. Allylisothiocyanate, which is a known TRPA1 activator, was dissolved in dimethyl sulfoxide to 100 mM, and further diluted 5-fold (100 μM) of the final concentration, like the test substance.
Calculation of Antagonist Activity
Under the test substance-free conditions, the maximum variation range of the fluorescence intensity before and after allylisothiocyanate stimulation was defined to be 100% activity rate, and the variation range before and after buffer stimulation was defined as 0% activity rate. The activity rate on addition of the test substance was determined, and the numerical value obtained by subtracting the activity rate from 100 was defined to be an inhibitory rate. IC50, which is the concentration of the test substance necessary for reaching the 50% inhibitory rate, was calculated from the sigmoid approximate curve by a spreadsheet software Excel-Fit.
For orientation: Calcium assays in cells follow changes in intracellular calcium, usually with a dye or a luminescent sensor.
Broadly, the IC50 is the concentration at which inhibition is half-maximal. As for `O=C(NCc1ccnc(-c2ccc(Cl)cc2)c1)[C@@H]1CCCN1S(=O)(=O)c1cc2ccccc2o1` [Example 198, (2S)-1-(benzofuran-2-ylsulfonyl)-N-[[2-(4-chlorophenyl)-4-pyridyl]methyl]pyrrolidine-2-carboxamide], the IC50 is 13 nM. Take `O=C(NCc1cccc(-c2ccc(C(F)(F)F)cn2)c1)[C@@H]1[C@@H](O)CCN1S(=O)(=O)c1cc2cc(F)ccc2o1` [Example 94, (2S,3S)-1-(5-fluorobenzofuran-2-yl)sulfonyl-3-hydroxy-N-[[3-[5-(trifluoromethyl)-2-pyridyl]phenyl]methyl]pyrrolidine-2-carboxamide]: the IC50 came out at 11 nM. Under `O=C(NCc1ccnc(-c2ccc(C(F)(F)F)cc2O)c1)[C@@H]1CCCN1S(=O)(=O)c1cc2cnccc2o1` [Example 271, (2S)-1-furo[3,2-c]pyridin-2-ylsulfonyl-N-[[2-[2-hydroxy-4-(trifluoromethyl)phenyl]-4-pyridyl]methyl]pyrrolidine-2-carboxamide] stands 4.4 nM; under `CNC(=O)c1ccc(-c2cccc(CNC(=O)[C@@H]3CCCN3S(=O)(=O)c3cc4cc(F)ccc4o3)c2)cn1` [Example 162, 5-[3-[[[(2S)-1-(5-fluorobenzofuran-2-yl)sulfonylpyrrolidine-2-carbonyl]amino]methyl]phenyl]-N-methyl-pyridine-2-carboxamide], 51 nM. Take `O=C(NCc1cccc(OCc2ccccn2)c1)[C@@H]1CCCN1S(=O)(=O)c1cc2cc(F)ccc2o1` [Example 15, (2S)-1-(5-fluorobenzofuran-2-yl)sulfonyl-N-[[3-(2-pyridylmethoxy)phenyl]-methyl]pyrrolidine-2-carboxamide]: the IC50 came out at 100 nM. Under `CN(C)[C@@H]1C[C@@H](C(=O)NCc2ccnc(-c3ccc(C(F)(F)F)cc3O)c2)N(S(=O)(=O)c2cc3ccccc3o2)C1` [Example 334, (2S,4R)-1-(benzofuran-2-ylsulfonyl)-4-(dimethylamino)-N-[[2-[2-hydroxy-4-(trifluoromethyl)phenyl]-4-pyridyl]methyl]pyrrolidine-2-carboxamide] stands 630 nM.

`CN(C)c1ncc(-c2ccc(F)c(CNC(=O)[C@@H]3CCCN3S(=O)(=O)c3cc4ccccc4o3)c2)cn1` [Example 174, (2S)-1-(benzofuran-2-ylsulfonyl)-N-[[5-[2-(dimethylamino)pyrimidin-5-yl]-2-fluoro-phenyl]methyl]pyrrolidine-2-carboxamide]: the IC50 came to 29 nM.

Take `O=C(NCc1cccc(OC(F)(F)F)c1)[C@@H]1CCCN1S(=O)(=O)c1cc2ccccc2o1` [Example 62, (2S)-1-(benzofuran-2-ylsulfonyl)-N-[[3-(trifluoromethoxy)phenyl]methyl]-pyrrolidine-2-carboxamide]: the IC50 was 60 nM. Under `O=C(NCc1ccc(-c2ccc(C(F)(F)F)cc2)cc1)[C@@H]1CCCN1S(=O)(=O)c1cc2ccccc2o1` [Example 165, (2S)-1-(benzofuran-2-ylsulfonyl)-N-[[4-[4-(trifluoromethyl)phenyl]-phenyl]methyl]pyrrolidine-2-carboxamide] stands 190 nM. Under `O=C(NC1(c2ccnc(-c3ccc(C(F)(F)F)cc3)c2)CC1)[C@@H]1CCCN1S(=O)(=O)c1cc2ccccc2o1` [Example 217, (2S)-1-(benzofuran-2-ylsulfonyl)-N-[1-[2-[4-(trifluoromethyl)phenyl]-4-pyridyl]cyclopropyl]-pyrrolidine-2-carboxamide] stands 64 nM. Under `O=C(NCc1cccc([S+]([O-])c2ccc(C(F)(F)F)cc2)c1)[C@@H]1CCCN1S(=O)(=O)c1cc2ccccc2o1` (stereo partly drawn) [Example 323, (2S)-1-(benzofuran-2-ylsulfonyl)-N-[[3-[4-(trifluoromethyl)phenyl]sulfinylphenyl]methyl]pyrrolidine-2-carboxamide] stands 200 nM; under `O=C(NCc1cc(-c2ccc(C(F)(F)F)cn2)ccn1)[C@@H]1[C@H]2C[C@H]2CN1S(=O)(=O)c1cc2cc(F)ccc2o1` [Example 257, (1R,4S,5S)-3-(5-fluorobenzofuran-2-yl)sulfonyl-N-[[4-[5-(trifluoromethyl)-2-pyridyl]-2-pyridyl]methyl]-3-azabicyclo[3.1.0]hexane-4-carboxamide], 64 nM. For the compound `O=C(NCc1cc(-c2ccc(C(F)(F)F)nc2)ncn1)[C@@H]1CCCN1S(=O)(=O)c1cc2cc(F)ccc2o1` [Example 224, (2S)-1-(5-fluorobenzofuran-2-yl)sulfonyl-N-[[6-[6-(trifluoromethyl)-3-pyridyl]pyrimidin-4-yl]methyl]pyrrolidine-2-carboxamide], the IC50 stood at 0.66 nM. With `O=C(NCc1cccc(F)c1)[C@@H]1CCCN1S(=O)(=O)c1cc2ccccc2o1` [Example 59, (2S)-1-(benzofuran-2-ylsulfonyl)-N-[(3-fluorophenyl)methyl]pyrrolidine-2-carboxamide], the IC50 came out at 540 nM. Under `O=C(NCc1cccc(-c2ccc(C(F)(F)F)nc2)c1)[C@@H]1[C@@H](O)CCN1S(=O)(=O)c1cc2cc(F)ccc2o1` [Example 93, (2S,3S)-1-(5-fluorobenzofuran-2-yl)sulfonyl-3-hydroxy-N-[[3-[6-(trifluoromethyl)-3-pyridyl]phenyl]methyl]pyrrolidine-2-carboxamide] stands 23 nM. Under `O=C(NCc1ccnc(-c2ccc(OC(F)F)cc2)c1)[C@@H]1CCCN1S(=O)(=O)c1cc2cc(F)ccc2o1` [Example 130, (2S)-N-[[2-[4-(difluoromethoxy)phenyl]-4-pyridyl]methyl]-1-(5-fluorobenzofuran-2-yl)sulfonyl-pyrrolidine-2-carboxamide] stands 2 nM.

Consider `O=C(NCc1cc(-c2ccc(C(F)(F)F)cn2)ccn1)[C@@H]1CCCN1S(=O)(=O)c1cc2cnccc2o1` [Example 272, (2S)-1-furo[3,2-c]pyridin-2-ylsulfonyl-N-[[4-[5-(trifluoromethyl)-2-pyridyl]-2-pyridyl]methyl]pyrrolidine-2-carboxamide], for which the IC50 stood at 12 nM. Take `O=C(NCc1cccc(/C=C/c2ccc(C(F)(F)F)cc2)c1)[C@@H]1CCCN1S(=O)(=O)c1cc2ccccc2o1` [Example 317, (2S)-1-(benzofuran-2-ylsulfonyl)-N-[[3-[(E)-2-[4-(trifluoromethyl)phenyl]vinyl]phenyl]methyl]pyrrolidine-2-carboxamide]: the IC50 turned out to be 31 nM. For the compound `CN(C)c1cccc(COc2cccc(CNC(=O)[C@@H]3CCCN3S(=O)(=O)c3cc4cc(F)ccc4o3)c2)c1` [Example 12, (2S)-N-[[3-[[3-(dimethylamino)phenyl]methoxy]phenyl]-methyl]-1-(5-fluorobenzofuran-2-yl)sulfonyl-pyrrolidine-2-carboxamide], the IC50 stood at 8.1 nM.

As for `CN(C)c1ccc(COc2cccc(CNC(=O)[C@@H]3CCCN3S(=O)(=O)c3cc4cc(F)ccc4o3)c2)cn1` [Example 21, (2S)-N-[[3-[[6-(dimethylamino)-3-pyridyl]methoxy]phenyl]-methyl]-1-(5-fluorobenzofuran-2-yl)sulfonyl-pyrrolidine-2-carboxamide], the IC50 was found to be 34 nM. As to `C[C@H](NS(=O)(=O)c1cc2cnccc2o1)C(=O)NCc1cc(-c2ccc(OC(F)(F)F)cc2)ncn1` [Example 305, (2S)-2-(furo[3,2-c]pyridin-2-ylsulfonylamino)-N-[[6-[4-(trifluoromethoxy)phenyl]pyrimidin-4-yl]methyl]propanamide], the IC50 stood at 26 nM.

On to `C[C@H](NS(=O)(=O)c1cc2cc(F)ccc2o1)C(=O)NCc1cc(-c2ccc(C(F)(F)F)cn2)ncn1` [Example 247, (2S)-2-[(5-fluorobenzofuran-2-yl)sulfonylamino]-N-[[6-[5-(trifluoromethyl)-2-pyridyl]pyrimidin-4-yl]methyl]propanamide], for which the IC50 worked out at 64 nM.
